Results on 8 compounds are retold here after paper PMC12126322, “Characterisation of the thermophilic P450 CYP116B305 identified using metagenomics-derived sequence data from an Australian hot spring” (Applied Microbiology and Biotechnology, 2025).

For experiment [1], the target named is CYP116B305. Kind of experiment: Substrate binding by UV-visible difference spectroscopy (KD, heme spin-state shift). Also noted: species or system Geminicoccaceae. The settings on record: for Kd: difference spectroscopy, CYP116B305 2–4 µM, substrate 0–100 µM; for Spin-state shift (%): low-spin to high-spin heme shift on substrate binding.
Experiment [2] has as its system CYP116B305. Kind of experiment: NAD(P)H consumption assay (cofactor preference, oxidation rates). It is filed as biochemical, Geminicoccaceae. The settings on record: for NADH consumption rates / NADPH consumption rates: 33% FMN inclusion, min^−1; for NADH consumption rates (100% FMN rates) / NADPH consumption rates (100% FMN rates): corresponding to full FMN incorporation, approximate maximum; for Km: cofactor oxidation in the presence of 2-HPA, read-out: KM of nicotinamide cofactor. On the procedure: The consumption rates were calculated using nonlinear regression (GraphPad Prism), fitting to either the Michaelis–Menten or a quadratic velocity equation to determine the apparent KM and kcat values.

In experiment [3] the test system is CYP116B305. Kind of experiment: In vitro catalytic turnovers and coupling efficiency (GC-MS). Format: biochemical, Geminicoccaceae. The settings on record: for Coupling (NADPH): product formed to NADPH consumed. On the procedure: The reaction mixtures contained CYP116B305 (1 µM) in KPi buffer (50 mM, pH 7.4), catalase (1 µM), substrate (600 µM), and NAD(P)H (1.2 mM). Reactions were conducted at both room temperature (25 °C) and elevated temperature (45 °C) under constant stirring for 1 h. A control reaction, omitting the P450 enzyme, was also performed. Post-incubation, reaction mixtures were acidified to pH 0–2 with HCl (except for 4-methoxyacetophenone assays), followed by extraction with ethyl acetate (3 × 1 mL). The combined organic phases were dried over magnesium sulphate and concentrated to 100 µL under a stream of nitrogen gas. Concentrated samples were derivatised with N,O-bis(trimethylsilyl)trifluoroacetamide (BSTFA-TMS) before being analysed by gas chromatography–mass spectrometry (GC–MS; Zebron ZB-5MS column 30 m × 0.25 mm × 0.25 µm). The method was 50 °C for 5 min followed by increments of 16 °C min^−1 until 250 °C was reached, then held for 5 min.
For coupling efficiency analysis, the NAD(P)H concentration was reduced to 200 µM, and an internal standard (100 µM) was added to the reactions prior to acidification and extraction. […] In the case of 4-methoxyacetophenone, the reactions were stirred for 2 h, and product formation (4-hydroxyacetophenone) was then quantified using a standard curve generated from 4-hydroxyacetophenone (0.05–1 mM) and an internal standard (fluorene; 100 µM).

For experiment [4], the system named is CYP116B305. Kind of experiment: Cytochrome c reduction assay with NADPH as electron donor. It is filed as biochemical, Geminicoccaceae. The settings on record: cytochrome c as artificial electron acceptor. Here is the method: Similarly, a cytochrome c reduction assay was also performed to derive the kinetic parameters, following established protocols (Guengerich et al. [2009]; Tavanti et al. [2018b]). Reactions contained cytochrome c (equine heart, Sigma-Aldrich, 50 µM), CYP116B305 (200 nM), catalase (1 µM), and varying concentrations of NADPH (0.5–200 µM). Cytochrome c reduction was monitored as described above, and nonlinear regression analysis (GraphPad Prism) was utilised to determine the KM and kcat values.

[5] abbreviates: in the presence of 2-HPA, 25 °C.

Structures are written as SMILES.

Take `O=C(O)Cc1ccccc1` [Phenylacetic acid]: in experiment [1], the Kd came out at 39 ± 11 µM and the “Spin-state shift (%)” value turned out to be 34 ± 6%. Also, the “Spin-state shift (%)” value in experiment [1] (listed as phenylacetic acid) turned out to be 34 ± 6%.
Consider `O=C(O)/C=C/c1ccccc1` [trans-Cinnamic acid], for which, in experiment [1], the Kd was determined as 61 ± 19 µM and the “Spin-state shift (%)” value turned out to be 13 ± 4%. For the same compound, the “Spin-state shift (%)” value in experiment [1] (listed as trans-cinnamic acid) amounted to 13 ± 4%.
Take `COc1ccc(C(C)=O)cc1` [4-Methoxyacetophenone]: in experiment [1], the Kd came out at 73 ± 6 µM and the “Spin-state shift (%)” value is 26 ± 3%. For the same compound, in experiment [1] (listed as 4-methoxyacetophenone), the “Spin-state shift (%)” value came to 26 ± 3%. Further, in experiment [2] (25 °C), the NADH consumption rates is 2 ± 1 µM (µM^−1 P450) min^−1 and the “NADH consumption rates (100% FMN rates)” value is given as ~6 µM (µM^−1 P450) min^−1. Besides, in experiment [2] (45 °C), the NADH consumption rates is recorded as 3 ± 1 µM (µM^−1 P450) min^−1, the NADPH consumption rates is recorded as 1 ± 1 µM (µM^−1 P450) min^−1, the “NADH consumption rates (100% FMN rates)” value is reported as ~9 µM (µM^−1 P450) min^−1 and the “NADPH consumption rates (100% FMN rates)” value is recorded as ~3 µM (µM^−1 P450) min^−1. Further, the “product formation with NADH as electron donor” value in experiment [3] (4-hydroxyacetophenone product, NADH) is “no product was observed”. In addition, in experiment [3] (25 °C), the “Coupling (NADPH)” value is “n.q”. Also, the “Coupling (NADPH)” value in experiment [3] (45 °C, listed as 4-Methoxy acetophenone) is reported as 24 ± 5%. The “Coupling (NADPH)” value in experiment [3] (45 °C, listed as 4-methoxyacetophenone) was determined as 24 ± 5%.
Take `O=C(O)Cc1ccc(O)cc1` [4-Hydroxyphenylacetic acid]: in experiment [1], the Kd was found to be 65 ± 13 µM and the “Spin-state shift (%)” value worked out at 17 ± 1%. Moreover, in experiment [1] (listed as 4-hydroxyphenylacetic acid), the “Spin-state shift (%)” value is reported as 17 ± 1%.
On to `O=C(O)c1ccccc1O` [Salicylic acid], for which, in experiment [1], the Kd is 43 ± 6 µM and the “Spin-state shift (%)” value came to 25 ± 2%. Besides, the “Spin-state shift (%)” value in experiment [1] (listed as salicylic acid) is on record as 25 ± 2%.
Consider `O=C(O)CCc1ccccc1O` [HPPA, 3-(2-hydroxyphenyl)propionic acid], for which, in experiment [1], the Kd came out at 0.4 ± 0.2 µM and the “Spin-state shift (%)” value was 90 ± 5%. Also, the “Spin-state shift (%)” value in experiment [1] (listed as 3-(2-Hydroxyphenyl)propionic acid (HPPA)) is listed as 90 ± 5%. In experiment [2] (25 °C), the NADH consumption rates is listed as 31 ± 3 µM (µM^−1 P450) min^−1, the NADPH consumption rates is listed as 11 ± 1 µM (µM^−1 P450) min^−1 and the “NADPH consumption rates (100% FMN rates)” value is listed as ~33 µM (µM^−1 P450) min^−1. Besides, in experiment [2] (45 °C compared to 25 °C), the “fold increase of NADH oxidation rate” value is reported as 2.4 fold and the “fold increase of NADPH oxidation rate” value is listed as “sixfold”. For the same compound, in experiment [2] (45 °C), the NADH consumption rates is 73 ± 2 µM (µM^−1 P450) min^−1, the NADPH consumption rates is 65 ± 3 µM (µM^−1 P450) min^−1, the “NADH consumption rates (100% FMN rates)” value is listed as ~221 µM (µM^−1 P450) min^−1 and the “NADPH consumption rates (100% FMN rates)” value is ~196 µM (µM^−1 P450) min^−1. The “Coupling (NADPH)” value in experiment [3] (25 °C) is recorded as 15 ± 2%. In addition, the “Coupling (NADH)” value in experiment [3] (45 °C, product formed to NADH consumed) stood at 15 ± 9%. In experiment [3] (45 °C), the “Coupling (NADPH)” value came to 26 ± 1%.
As for `NC(=O)C1=CN([C@@H]2O[C@H](COP(=O)(O)OP(=O)(O)OC[C@H]3O[C@@H](n4cnc5c(N)ncnc54)[C@H](O)[C@@H]3O)[C@@H](O)[C@H]2O)C=CC1` [NADH, reference compound], the Km in experiment [2] (25 °C) worked out at 60 ± 15 µM. The “kcat of nicotinamide cofactor oxidation” value in experiment [2] (setting [5]) came out at 0.65 ± 0.067 s⁻¹.
Regarding `NC(=O)C1=CN([C@@H]2O[C@H](COP(=O)(O)OP(=O)(O)OC[C@H]3O[C@@H](n4cnc5c(N)ncnc54)[C@H](OP(=O)(O)O)[C@@H]3O)[C@@H](O)[C@H]2O)C=CC1` [NADPH, reference compound], the Km in experiment [2] (25 °C) was found to be 4.1 ± 0.3 µM. In addition, in experiment [2] (setting [5]), the “fold lower KM compared to NADH” value was found to be 15 fold and the “kcat of nicotinamide cofactor oxidation” value was found to be 0.217 ± 0.017 s⁻¹. Moreover, in experiment [4], the Km worked out at 1.2 ± 0.1 µM and the “kcat for NADPH” value amounted to 0.0683 ± 0.0017 s⁻¹.

Usually Kd stands for the concentration at which binding is half-saturated. A word on the Km: it is the substrate concentration at which the rate is half of its maximum.
